BigSolDB 2.1

COc1cc2c(cc1OC)C(=O)CC2
solubility (mole fraction)
Details	283.15 K	288.15 K	293.15 K	298.15 K	303.15 K	308.15 K	313.15 K	318.15 K	323.15 K
in 2-butanone	0.0514	0.0623	0.0746	0.0891	0.105	0.125	0.149	0.177	0.208
in acetone	0.0486	0.0596	0.071	0.0834	0.101	0.122	0.146	0.173	0.2
in ethanol	0.00826	0.0112	0.0141	0.0193	0.0242	0.0317	0.0412	0.0519	0.0636
in ethyl acetate	0.0389	0.0492	0.059	0.0697	0.0842	0.101	0.122	0.147	0.171
in isobutanol	0.0123	0.0161	0.0212	0.0288	0.0385	0.0493	0.0646	0.0806	0.102
in isopropanol	0.00596	0.00802	0.0108	0.0146	0.0198	0.0269	0.0354	0.0455	0.0588
in isopropyl acetate	0.0264	0.0329	0.0396	0.0485	0.0581	0.0691	0.0801	0.0933	0.11
in methanol	0.0097	0.0124	0.0171	0.0238	0.0317	0.0418	0.0547	0.071	0.0902
in methyl acetate	0.0426	0.053	0.0665	0.0793	0.0986	0.118	0.139	0.159	0.185
in n-butanol	0.0118	0.0155	0.02	0.0268	0.0352	0.0451	0.0583	0.0739	0.0925
in n-butyl acetate	0.025	0.0294	0.0359	0.0428	0.0503	0.0593	0.0695	0.0795	0.0897
in n-pentanol	0.0115	0.0156	0.0216	0.0278	0.0386	0.0509	0.0659	0.0827	0.104
in n-propanol	0.00925	0.0119	0.0158	0.0206	0.0281	0.0356	0.0457	0.0579	0.0695
in n-propyl acetate	0.034	0.0424	0.05	0.0596	0.0694	0.0821	0.0962	0.109	0.129
in sec-butanol	0.0105	0.0147	0.0199	0.0272	0.0357	0.0461	0.0612	0.0766	0.0943
